Test results: patent US20260109707A1, “HETEROBIFUNCTIONAL COMPOUNDS AND METHODS OF TREATING DISEASE” (Halda Therapeutics OpCo. Inc., priority 2022, published 2026)

Columns and labels:
[1] = tested on: T-Rex 293 cell line SC3 cells having increased expression of androgen receptor protein due to exposure to doxycycline; test: Cellular growth inhibition assay, T-Rex 293 SC3 cells with doxycycline (CellTiter-Glo, 72 hours); assay type: cell-based; conditions: T-Rex 293 SC3 cells with increased androgen receptor expression due to doxycycline (10 ng/mL)
Experimental: (§1) The following types of cells were prepared for this experiment: (i) a T-Rex 293 cell line having increased expression of androgen receptor protein due to exposure to doxycycline and (ii) a T-Rex 293 cell line lacking increased expression of androgen receptor protein. Ability of the test compounds to inhibit proliferation of the foregoing cell types was evaluated according to the procedures set forth below.
(§2) The doxycycline-inducible androgen receptor protein expressing cell line was established using the following protocol: T-Rex 293 cells were purchased from Invitrogen (Cat #R71007) and transfected using Lipofectamine 2000 with the wild-type androgen receptor protein sequence cloned into the pcDNA4/TO vector. Transfected cells were selected using 400 μg/mL Zeocin (Invitrogen Cat #R25001). Following selection, single clones were raised and maintained in Dulbecco's Modified Eagle Medium (DMEM) supplemented with 10% w/w Tetracycline-free fetal bovine serum (FBS) and 250 μg/mL Zeocin. Clones were analyzed for expression of androgen receptor protein in the presence and absence of 10 ng/mL doxycycline (Sigma Cat #D9891), and a single doxycycline-inducible clone (hereinafter “SC3”) was selected for use in downstream assays.
(§3) The SC3 cells were seeded on poly-D-lysine coated, black clear-bottom 384-well plates at 2500/well, in 25 μL Phenol Red Free Dulbecco's Modified Eagle Medium (DMEM) supplemented with 10% w/w charcoal-dextran treated fetal bovine serum (FBS) and 1% w/w pen-strep, with or without 10 ng/mL doxycycline. Pen-Strep is a commercially available mixture of penicillin G and streptomycin, which is used in mammalian cell culture media to prevent bacterial contamination. Phenol Red Free Dulbecco's Modified Eagle Medium (DMEM) supplemented with 10% w/w charcoal-dextran treated fetal bovine serum (FBS) and 1% w/w pen-strep, with or without 10 ng/mL doxycycline is herein referred to as Treatment Medium. Following seeding of cells in the plates, the plates were spun at 300×g for 30 seconds, then equilibrated to room temperature for 30 minutes, and then deposited in a humidified tissue culture incubator maintained at 37° C. with 5% CO2.
(§4) At 24 hours after seeding of the cells, dilutions of test compound were prepared in DMSO and dissolved in Treatment Medium, to achieve a final DMSO concentration of 0.5% w/w, thereby providing the Test Compound Solution. A 25 μL aliquot of the Test Compound Solution was added to cells in the well plates. An equal volume of a solution containing DMSO and Treatment Medium was used as a negative control. Following treatment of cells with Test Compound Solution or said equal volume of a solution containing DMSO and Treatment Medium, the plates were spun at 300×g for 30 seconds, and then left in an incubator for 72 hours.
(§5) At the end of the treatment duration, cell viability was quantified with CellTiter-Glo 2.0 reagent (Promega Cat #G9243). For this purpose, plates were equilibrated to room temperature for 30 minutes, and then 25 μL of CellTiter-Glo 2.0 reagent was added to cells in the plate wells. Plates were then agitated on a shaker for two minutes at 500 rpm and subsequently incubated at room temperature for 10 minutes. Following incubation, the plates were spun at 3000×g for 30 seconds, then sealed with an optical adhesive cover, and luminescence readings were measured with an EnVision Plate Reader.
(§6) Data was normalized using zero luminescence for baseline. A four-parameter non-linear regression curve fit was applied to dose-response data in GraphPad Prism data analysis software to determine the half-maximal growth inhibitory concentration (GI50) for each test compound.

[2] = tested on: T-Rex 293 cell line SC3 cells lacking increased expression of androgen receptor protein; test: Cellular growth inhibition assay, T-Rex 293 SC3 cells without doxycycline (CellTiter-Glo, 72 hours); assay type: cell-based; conditions: T-Rex 293 cell line SC3 cells not exposed to doxycycline (lacking increased androgen receptor expression)
Experimental: as §1, §2, §3, §4, §5, §6

Structure (SMILES): Cc1sc2c(c1C)C(c1ccc(N3CCCC(CNc4ncc(C(=O)NC5CCC(Oc6ccc(C#N)c(Cl)c6)CC5)cn4)C3)cc1)=NC(Cc1ncco1)c1nnc(C)n1-2 (mixture of isomers) [I-810]
- GI50 [1]: < 500 nM
- GI50 [2]: 500 to 1500 nM

Structure (SMILES): Cc1sc2c(c1C)C(c1ccc(NCC3CN(c4ncc(C(=O)NC5CCC(Oc6ccc(C#N)c(Cl)c6)CC5)cn4)CCO3)cc1)=NC(Cc1ncco1)c1nnc(C)n1-2 (mixture of isomers) [I-814]
- GI50 [1]: < 500 nM
- GI50 [2]: < 500 nM

Structure (SMILES): Cc1sc2c(c1C)C(c1ccc(N3CC4CC3CN4c3ncc(C(=O)NC4CCC(Oc5ccc(C#N)c(Cl)c5)CC4)cn3)cc1)=NC(Cc1ncco1)c1nnc(C)n1-2 (mixture of isomers) [I-815]
- GI50 [1]: < 500 nM
- GI50 [2]: < 500 nM

Structure (SMILES): Cc1sc2c(c1C)C(c1ccc(N3CCC4(CC3)CCN(c3ncc(C(=O)N[C@H]5CC[C@H](Oc6ccc(C#N)c(Cl)c6)CC5)cn3)C4)cc1)=NC(Cc1ncco1)c1nnc(C)n1-2 (mixture of isomers) [I-779]
- GI50 [1]: < 500 nM
- GI50 [2]: < 500 nM

Structure (SMILES): Cc1sc2c(c1C)C(c1ccc(N3CCN(C4CCN(c5ncc(C(=O)N[C@H]6CC[C@H](Oc7ccc(C#N)c(Cl)c7)CC6)cn5)C4)CC3)cc1)=NC(Cc1ncco1)c1nnc(C)n1-2 (mixture of isomers) [I-783]
- GI50 [1]: < 500 nM
- GI50 [2]: < 500 nM

Structure (SMILES): Cc1sc2c(c1C)C(c1ccc(C#CC3CC4(CCCN(c5ccc(C(=O)N[C@H]6CC[C@H](Oc7ccc(C#N)c(Cl)c7)CC6)nn5)C4)C3)cc1)=NC1(CC1)c1nnc(C)n1-2 (stereo partly drawn) [I-472]
- GI50 ([1]; 72 h): < 500 nM
- GI50 [2]: > 3000 nM

Structure (SMILES): Cc1sc2c(c1C)C(c1ccc(N3CCC4(CCN(c5ccc(C(=O)N[C@H]6CC[C@H](Oc7ccc(C#N)c(Cl)c7)CC6)nn5)C4)C3)cc1)=N[C@@H](C)c1nnc(C)n1-2 (stereo partly drawn) [I-535]
- GI50 ([1]; 72 h): < 500 nM

Structure (SMILES): COC[C@@H]1N=C(c2ccc(C3CCC4(CC3)CCN(c3ccc(C(=O)N[C@H]5CC[C@H](Oc6ccc(C#N)c(Cl)c6)CC5)nn3)C4)cc2)c2c(sc(C)c2C)-n2c(C)nnc21 (stereo partly drawn) [I-602]
- GI50 ([2]; 72 h): < 500 nM

Structure (SMILES): Cc1sc2c(c1C)C(c1ccc(CC3CC(OC4CCN(c5ccc(C(=O)NC6CCC(Oc7ccc(C#N)c(Cl)c7)CC6)nn5)CC4)C3)cc1)=NC(C)c1nnc(C)n1-2 (stereo not drawn) [I-603]
- GI50 ([1]; 72 h): < 500 nM
- GI50 ([2]; 72 h): < 500 nM

Structure (SMILES): COC[C@@H]1N=C(c2ccc(OC3CC4(CCCN(c5ccc(C(=O)N[C@H]6CC[C@H](Oc7ccc(C#N)c(Cl)c7)CC6)nn5)C4)C3)cc2)c2c(sc(C)c2C)-n2c(C)nnc21 (stereo partly drawn) [I-661]
- GI50 ([1]; 72 h): < 500 nM

Structure (SMILES): Cc1sc2c(c1C)C(c1ccc(N3C[C@@H]4CN(c5ccc(C(=O)N[C@H]6CC[C@H](Oc7ccc(C#N)c(Cl)c7)CC6)nn5)C[C@H]4C3)cc1)=N[C@@H](C)c1nnc(C)n1-2 [I-705]
- GI50 ([2]; 72 h): < 500 nM

Structure (SMILES): Cc1sc2c(c1C)C(c1ccc(N[C@H]3CCN(c4ncc(C(=O)N[C@H]5CC[C@H](Oc6ccc(C#N)c(Cl)c6)CC5)cn4)C3)cc1)=NC(Cc1ncco1)c1nnc(C)n1-2 (stereo partly drawn) [I-773]
- GI50 ([1]; 72 h): 500 to 1500 nM
- GI50 ([2]; 72 h): 500 to 1500 nM

Structure (SMILES): Cc1sc2c(c1C)C(c1ccc(NCCN3CCN(c4ncc(C(=O)N[C@H]5CC[C@H](Oc6ccc(C#N)c(Cl)c6)CC5)cn4)CC3)cc1)=NC(Cc1ncco1)c1nnc(C)n1-2 (stereo partly drawn) [I-774]
- GI50 ([1]; 72 h): < 500 nM
- GI50 ([2]; 72 h): < 500 nM

Structure (SMILES): Cc1sc2c(c1C)C(c1ccc(N[C@H]3CC[C@@H](Nc4ncc(C(=O)N[C@H]5CC[C@H](Oc6ccc(C#N)c(Cl)c6)CC5)cn4)CC3)cc1)=NC(Cc1ncco1)c1nnc(C)n1-2 (stereo partly drawn) [I-775]
- GI50 ([1]; 72 h): < 500 nM
- GI50 ([2]; 72 h): > 3000 nM

Structure (SMILES): Cc1sc2c(c1C)C(c1ccc(N3CC[C@H](Nc4ncc(C(=O)N[C@H]5CC[C@H](Oc6ccc(C#N)c(Cl)c6)CC5)cn4)C3)cc1)=NC(Cc1ncco1)c1nnc(C)n1-2 (stereo partly drawn) [I-776]
- GI50 ([1]; 72 h): < 500 nM
- GI50 ([2]; 72 h): < 500 nM

Structure (SMILES): Cc1sc2c(c1C)C(c1ccc(N3CC4(CCN(c5ncc(C(=O)N[C@H]6CC[C@H](Oc7ccc(C#N)c(Cl)c7)CC6)cn5)CC4)C3)cc1)=NC(Cc1ncco1)c1nnc(C)n1-2 (stereo partly drawn) [I-777]
- GI50 ([1]; 72 h): < 500 nM
- GI50 ([2]; 72 h): < 500 nM

Structure (SMILES): Cc1sc2c(c1C)C(c1ccc(N3CCC(C)(Nc4ncc(C(=O)N[C@H]5CC[C@H](Oc6ccc(C#N)c(Cl)c6)CC5)cn4)CC3)cc1)=NC(Cc1ncco1)c1nnc(C)n1-2 (stereo partly drawn) [I-778]
- GI50 ([1]; 72 h): < 500 nM
- GI50 ([2]; 72 h): < 500 nM

Structure (SMILES): Cc1sc2c(c1C)C(c1ccc(N3CC(N4CCN(c5ncc(C(=O)N[C@H]6CC[C@H](Oc7ccc(C#N)c(Cl)c7)CC6)cn5)CC4)C3)cc1)=NC(Cc1ncco1)c1nnc(C)n1-2 (stereo partly drawn) [I-780]
- GI50 ([1]; 72 h): < 500 nM
- GI50 ([2]; 72 h): < 500 nM

Structure (SMILES): Cc1sc2c(c1C)C(c1ccc(N[C@H]3CCN(c4ncc(C(=O)N[C@H]5CC[C@H](Oc6ccc(C#N)c(Cl)c6)CC5)cn4)C[C@@H]3F)cc1)=NC(Cc1ncco1)c1nnc(C)n1-2 (stereo partly drawn) [I-781]
- GI50 ([1]; 72 h): < 500 nM
- GI50 ([2]; 72 h): < 500 nM

Structure (SMILES): Cc1sc2c(c1C)C(c1ccc(N3[C@@H]4CC[C@H]3C[C@@H](Nc3ncc(C(=O)N[C@H]5CC[C@H](Oc6ccc(C#N)c(Cl)c6)CC5)cn3)C4)cc1)=NC(Cc1ncco1)c1nnc(C)n1-2 (stereo partly drawn) [I-782]
- GI50 [1]: < 500 nM
- GI50 [2]: > 3000 nM

Structure (SMILES): Cc1sc2c(c1C)C(c1ccc(NCC3CCCN(c4ncc(C(=O)N[C@H]5CC[C@H](Oc6ccc(C#N)c(Cl)c6)CC5)cn4)C3)cc1)=NC(Cc1ncco1)c1nnc(C)n1-2 (stereo partly drawn) [I-809]
- GI50 ([1]; 72 h): < 500 nM
- GI50 ([2]; 72 h): > 3000 nM

Structure (SMILES): Cc1sc2c(c1C)C(c1ccc(NCCC3CCN(c4ncc(C(=O)N[C@H]5CC[C@H](Oc6ccc(C#N)c(Cl)c6)CC5)cn4)CC3)cc1)=NC(Cc1ncco1)c1nnc(C)n1-2 (stereo partly drawn) [I-811]
- GI50 ([1]; 72 h): < 500 nM
- GI50 ([2]; 72 h): < 500 nM

Structure (SMILES): Cc1sc2c(c1C)C(c1ccc(N3CCCC4(CCN(c5ncc(C(=O)N[C@H]6CC[C@H](Oc7ccc(C#N)c(Cl)c7)CC6)cn5)CC4)C3)cc1)=NC(Cc1ncco1)c1nnc(C)n1-2 (stereo partly drawn) [I-812]
- GI50 ([1]; 72 h): < 500 nM
- GI50 ([2]; 72 h): > 3000 nM

Structure (SMILES): Cc1sc2c(c1C)C(c1ccc(N3C[C@H](F)C[C@@H](Nc4ncc(C(=O)N[C@H]5CC[C@H](Oc6ccc(C#N)c(Cl)c6)CC5)cn4)C3)cc1)=NC(Cc1ncco1)c1nnc(C)n1-2 (stereo partly drawn) [I-813]
- GI50 ([1]; 72 h): < 500 nM
- GI50 ([2]; 72 h): < 500 nM

Structure (SMILES): Cc1sc2c(c1C)C(c1ccc(N3CCCN(CCCNc4ncc(C(=O)N[C@H]5CC[C@H](Oc6ccc(C#N)c(Cl)c6)CC5)cn4)CC3)cc1)=NC(Cc1ncco1)c1nnc(C)n1-2 (stereo partly drawn) [I-816]
- GI50 ([1]; 72 h): < 500 nM
- GI50 ([2]; 72 h): > 3000 nM

Structure (SMILES): Cc1sc2c(c1C)C(c1ccc(N3CCC(C)(CNc4ncc(C(=O)N[C@H]5CC[C@H](Oc6ccc(C#N)c(Cl)c6)CC5)cn4)CC3)cc1)=NC(Cc1ncco1)c1nnc(C)n1-2 (stereo partly drawn) [I-817]
- GI50 ([1]; 72 h): < 500 nM
- GI50 ([2]; 72 h): < 500 nM

Structure (SMILES): Cc1sc2c(c1C)C(c1ccc(N3CCC4(CC3)CC(Nc3ncc(C(=O)N[C@H]5CC[C@H](Oc6ccc(C#N)c(Cl)c6)CC5)cn3)C4)cc1)=NC(Cc1ncco1)c1nnc(C)n1-2 (stereo partly drawn) [I-818]
- GI50 ([1]; 72 h): < 500 nM
- GI50 ([2]; 72 h): < 500 nM

Structure (SMILES): Cc1sc2c(c1C)C(c1ccc(N3CCO[C@@H](CNc4ncc(C(=O)N[C@H]5CC[C@H](Oc6ccc(C#N)c(Cl)c6)CC5)cn4)C3)cc1)=NC(Cc1ncco1)c1nnc(C)n1-2 (stereo partly drawn) [I-819]
- GI50 ([1]; 72 h): < 500 nM
- GI50 ([2]; 72 h): < 500 nM

Structure (SMILES): Cc1sc2c(c1C)C(c1ccc(N3CCN(c4ncc(C(=O)N[C@H]5CC[C@H](Oc6ccc(C#N)c(Cl)c6)CC5)cn4)CC(F)(F)C3)cc1)=NC(Cc1ncco1)c1nnc(C)n1-2 (stereo partly drawn) [I-820]
- GI50 ([1]; 72 h): < 500 nM
- GI50 ([2]; 72 h): < 500 nM
